Key:
CDK2/A = target: T1, CDK2/A (Homo sapiens, UniProt P24941); assay: protein kinase catalytic activity assay, CDK2/cyclin A; type: biochemical; settings: read-out: IC50 towards CDK2/A
T1 construct: made in house

CDK5/p25 = target: T2, CDK5/p25 (Homo sapiens, UniProt Q00535); assay: protein kinase catalytic activity assay, CDK5/p25; type: biochemical; settings: read-out: IC50 towards CDK5/p25
T2 construct: made in house

CDK9/T = target: T3, CDK9/T (Homo sapiens, UniProt P50750); assay: protein kinase catalytic activity assay, CDK9/cyclin T; type: biochemical; settings: read-out: IC50 towards CDK9/T
T3 construct: made in house

CK1 = assay: protein kinase catalytic activity assay, CK1; type: biochemical; settings: read-out: IC50 towards CK1
ABCB4-WT [1] = target: T4, ABCB4-WT (Homo sapiens, UniProt P21439); assay: ABCB4-mediated phosphatidylcholine secretion, HEK cells expressing ABCB4-WT; type: cell-based; settings: from dose-response curves of Fig. 4C, read-out: IC50 (µM) (min-max) on the PC secretion activity of ABCB4-WT
T4 construct: wild type (WT) ABCB4, isoform A (NM_000443.3), into pcDNA3 vector; expressed in transfected cells; host or cells: HEK-293
Description: (§1) Cyclosporin A (CsA) was from Santa Cruz Biotechnologies (Dallas, TX). […] Each compound was solubilized in dimethylsulfoxide (DMSO) as 1000X concentrated stock solutions in order to treat cells with 5 µM to 100 µM final concentrations, using DMSO as control vehicle at the same dilution (0.1% DMSO for all conditions). The cells were treated 24 hours post-transfection with these drugs during 16 hours, except for the viability assays for which cells were treated during three days. After drug treatment, cells were used for immunoanalyses, cell viability assays or PC secretion assays.
(§2) HEK cells were seeded in 0.01% poly-L-lysine (Sigma) pre-coated 6-well plates of 10 cm² area per well (1.3 × 10^6 cells per well). After transient transfection of the empty vector (control), plasmids encoding ABCB4-WT or its variants, cells were incubated during 24 hours at 37 °C in serum-free medium supplemented with 0.5 mM sodium taurocholate (Sigma) and 0.02% fatty acid–free bovine serum albumin (Sigma). Then, the secreted PC was quantified from the collected media using a fluoro-enzymatic assay previously described. Each condition was analysed in triplicate, after background subtraction, and results were normalized to the expression levels of ABCB4 determined by immunoblots of the corresponding cell lysates.

ABCB4-I490T = target: T5, ABCB4-I490T (Homo sapiens, UniProt P21439, I490T); assay: Canalicular localisation of ABCB4-I490T by indirect immunofluorescence in HepG2 cells; type: cell-based; settings: 25 µM
T5 construct: wild type (WT) ABCB4, isoform A (NM_000443.3), into pcDNA3 vector; expressed in transfected cells; host or cells: HepG2

ABCB4-L556R = target: T6, ABCB4-L556R (Homo sapiens, UniProt P21439, L556R); assay: Canalicular localisation of ABCB4-L556R by indirect immunofluorescence in HepG2 cells; type: cell-based; settings: 25 µM
T6 construct: wild type (WT) ABCB4, isoform A (NM_000443.3), into pcDNA3 vector; expressed in transfected cells; host or cells: HepG2

ABCB4-I541F [2] = target: T7, ABCB4-I541F (Homo sapiens, UniProt P21439, I541F); assay: Maturation of ABCB4-I541F by immunoblot in HEK cells; type: cell-based; set-up: wild type (WT) ABCB4, isoform A (NM_000443.3), into pcDNA3 vector; expressed in transfected cells; host or cells: HEK-293 (immunoblot, PC secretion); settings: 100 µM, 16 hours
Description: For transient transfection of HEK cells, they were seeded at subconfluent levels in the adequate tissue culture wells at least six hours before transfection. Turbofect (Thermo Fisher scientific) was used at a ratio of reagent:DNA of 2:1 according to manufacturer’s instructions. For transient transfection of HepG2 cells, subconfluent cultures were seeded in the adequate culture wells 24 hours before transfection. Lipofectamine 3000 (Thermo Fisher Scientific) was used at a ratio of reagent:DNA of 1.5:1 according to manufacturer’s instructions. Cell treatments and processing for further analyses were performed at least 16 hours post-transfection.
as §1
Western blots and indirect immunofluorescence were performed as previously described[9],[50]. […] Signals were detected with ECL prime western blotting detection reagent (GE Healthcare, Velizy-Villacoublay, France) and quantified in the linear range of detection using ImageJ 1.50i software (U.S. National Institutes of Health, Bethesda, MD).

ABCB4-I541F [3] = target: T7, ABCB4-I541F; assay: ABCB4-mediated phosphatidylcholine secretion, HEK cells expressing ABCB4-I541F; type: cell-based; set-up: wild type (WT) ABCB4, isoform A (NM_000443.3), into pcDNA3 vector; expressed in transfected cells; host or cells: HEK-293 (immunoblot, PC secretion); settings: 25 µM, vehicle 7.1 ± 0.8%
Description: as §1, §2

ABCB4-WT [4] = target: T4, ABCB4-WT; set-up: method as in PMID 24806754; settings: cited from earlier work
ABCB4-I541F [5] = target: T7, ABCB4-I541F; set-up: wild type (WT) ABCB4, isoform A (NM_000443.3), into pcDNA3 vector; expressed in transfected cells; host or cells: HEK-293 (immunoblot, PC secretion); HepG2 (immunofluorescence); method as in PMID 22184139, PMID 19185004; settings: cited from earlier work
[6] = Cell viability, MTT assay; settings: human
Description: as §1
(§3) Cell viability was assessed by the conversion of MTT (3-[4,5-dimethylthiazol-2-yl]-2,5 diphenyl tetrazolium bromide) into formazan crystals by living cells, as described. In brief, HEK cells were seeded in 96-well plates in triplicate for each tested condition, including controls (no cells, no treatment, treatment with vehicle). […] These conditions were optimized in order to maintain the absorbance at 540 nm of the blanks below 0.1 OD unit (negative controls) and the absorbance at 540 nm for untreated cells between 1.0 and 1.3 OD units (positive controls). Then culture media were gently washed out, cells were lysed in 100 µL of pure DMSO and absorbance at 540 nm was measured using a multiplate cytofluorimeter SpectraFluor from Tecan (Männedorf, Switzerland). Cell viability was calculated for each triplicate after background subtraction and expressed as percentage of the mean for cells treated with vehicle only.

HEK cells = assay: Cell viability, MTT assay; settings: three days
Description: as §1, §3

T6 sequence (P21439 1-1279 isoform P21439-2 L556R): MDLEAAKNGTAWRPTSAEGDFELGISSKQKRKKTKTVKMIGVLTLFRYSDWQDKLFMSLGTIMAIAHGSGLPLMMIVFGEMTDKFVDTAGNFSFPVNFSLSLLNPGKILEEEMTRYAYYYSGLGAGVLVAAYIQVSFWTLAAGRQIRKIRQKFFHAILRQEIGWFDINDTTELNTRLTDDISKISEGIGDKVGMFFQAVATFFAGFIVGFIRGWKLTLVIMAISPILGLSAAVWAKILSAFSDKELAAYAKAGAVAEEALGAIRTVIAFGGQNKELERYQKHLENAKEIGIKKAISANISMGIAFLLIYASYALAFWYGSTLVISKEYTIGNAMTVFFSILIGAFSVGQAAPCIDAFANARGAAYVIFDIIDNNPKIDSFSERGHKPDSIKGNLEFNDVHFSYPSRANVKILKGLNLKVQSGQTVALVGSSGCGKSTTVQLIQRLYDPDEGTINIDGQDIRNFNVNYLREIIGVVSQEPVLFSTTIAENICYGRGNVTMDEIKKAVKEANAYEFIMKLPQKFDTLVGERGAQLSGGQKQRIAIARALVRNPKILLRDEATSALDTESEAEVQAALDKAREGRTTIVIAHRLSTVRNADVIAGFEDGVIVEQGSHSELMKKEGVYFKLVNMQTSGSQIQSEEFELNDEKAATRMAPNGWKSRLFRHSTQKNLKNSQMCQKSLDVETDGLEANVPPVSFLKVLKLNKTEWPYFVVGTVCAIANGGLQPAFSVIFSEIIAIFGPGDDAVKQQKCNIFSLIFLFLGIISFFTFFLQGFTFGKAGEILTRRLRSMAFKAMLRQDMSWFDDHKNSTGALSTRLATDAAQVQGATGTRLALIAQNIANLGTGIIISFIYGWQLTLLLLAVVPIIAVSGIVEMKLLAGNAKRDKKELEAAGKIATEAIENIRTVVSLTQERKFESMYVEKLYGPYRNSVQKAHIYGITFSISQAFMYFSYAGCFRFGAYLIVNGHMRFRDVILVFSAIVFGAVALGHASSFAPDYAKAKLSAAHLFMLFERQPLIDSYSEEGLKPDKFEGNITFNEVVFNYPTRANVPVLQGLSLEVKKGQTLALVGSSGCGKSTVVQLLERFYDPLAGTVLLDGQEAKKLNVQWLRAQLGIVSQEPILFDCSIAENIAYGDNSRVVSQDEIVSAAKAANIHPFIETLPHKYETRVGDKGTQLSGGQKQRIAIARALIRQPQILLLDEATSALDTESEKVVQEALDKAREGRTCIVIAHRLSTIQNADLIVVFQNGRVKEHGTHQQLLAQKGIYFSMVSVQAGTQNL
T3 sequence (P50750 whole entry, species assumed): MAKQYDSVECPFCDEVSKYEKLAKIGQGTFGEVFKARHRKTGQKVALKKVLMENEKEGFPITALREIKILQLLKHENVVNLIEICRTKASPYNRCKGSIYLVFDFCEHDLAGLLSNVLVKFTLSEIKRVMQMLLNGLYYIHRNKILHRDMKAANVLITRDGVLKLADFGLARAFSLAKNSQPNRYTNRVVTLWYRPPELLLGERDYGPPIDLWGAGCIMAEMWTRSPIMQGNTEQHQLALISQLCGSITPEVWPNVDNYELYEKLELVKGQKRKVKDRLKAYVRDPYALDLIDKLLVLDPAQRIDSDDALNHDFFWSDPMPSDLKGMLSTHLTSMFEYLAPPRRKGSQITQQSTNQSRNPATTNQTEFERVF
T3 sequence (O60563 whole entry partner, species assumed): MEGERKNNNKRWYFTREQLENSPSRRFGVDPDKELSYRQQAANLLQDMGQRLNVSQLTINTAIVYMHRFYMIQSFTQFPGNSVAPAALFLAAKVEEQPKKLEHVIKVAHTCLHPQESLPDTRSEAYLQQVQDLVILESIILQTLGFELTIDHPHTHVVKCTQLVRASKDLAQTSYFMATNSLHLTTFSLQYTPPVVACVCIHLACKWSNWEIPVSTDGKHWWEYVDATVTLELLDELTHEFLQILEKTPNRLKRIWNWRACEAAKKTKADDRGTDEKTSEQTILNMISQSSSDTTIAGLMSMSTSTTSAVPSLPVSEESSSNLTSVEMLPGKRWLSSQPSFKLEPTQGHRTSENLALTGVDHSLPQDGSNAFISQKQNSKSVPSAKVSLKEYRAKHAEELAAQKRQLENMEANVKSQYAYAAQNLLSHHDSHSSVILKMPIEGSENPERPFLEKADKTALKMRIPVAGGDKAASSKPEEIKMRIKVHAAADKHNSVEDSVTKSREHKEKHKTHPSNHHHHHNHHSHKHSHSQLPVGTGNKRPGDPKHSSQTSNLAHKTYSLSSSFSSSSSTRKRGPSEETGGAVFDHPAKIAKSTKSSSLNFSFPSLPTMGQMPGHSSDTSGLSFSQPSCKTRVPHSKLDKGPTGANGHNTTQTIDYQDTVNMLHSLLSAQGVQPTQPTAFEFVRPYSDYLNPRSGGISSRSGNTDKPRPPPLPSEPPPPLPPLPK
T5 sequence (P21439 1-1279 isoform P21439-2 I490T): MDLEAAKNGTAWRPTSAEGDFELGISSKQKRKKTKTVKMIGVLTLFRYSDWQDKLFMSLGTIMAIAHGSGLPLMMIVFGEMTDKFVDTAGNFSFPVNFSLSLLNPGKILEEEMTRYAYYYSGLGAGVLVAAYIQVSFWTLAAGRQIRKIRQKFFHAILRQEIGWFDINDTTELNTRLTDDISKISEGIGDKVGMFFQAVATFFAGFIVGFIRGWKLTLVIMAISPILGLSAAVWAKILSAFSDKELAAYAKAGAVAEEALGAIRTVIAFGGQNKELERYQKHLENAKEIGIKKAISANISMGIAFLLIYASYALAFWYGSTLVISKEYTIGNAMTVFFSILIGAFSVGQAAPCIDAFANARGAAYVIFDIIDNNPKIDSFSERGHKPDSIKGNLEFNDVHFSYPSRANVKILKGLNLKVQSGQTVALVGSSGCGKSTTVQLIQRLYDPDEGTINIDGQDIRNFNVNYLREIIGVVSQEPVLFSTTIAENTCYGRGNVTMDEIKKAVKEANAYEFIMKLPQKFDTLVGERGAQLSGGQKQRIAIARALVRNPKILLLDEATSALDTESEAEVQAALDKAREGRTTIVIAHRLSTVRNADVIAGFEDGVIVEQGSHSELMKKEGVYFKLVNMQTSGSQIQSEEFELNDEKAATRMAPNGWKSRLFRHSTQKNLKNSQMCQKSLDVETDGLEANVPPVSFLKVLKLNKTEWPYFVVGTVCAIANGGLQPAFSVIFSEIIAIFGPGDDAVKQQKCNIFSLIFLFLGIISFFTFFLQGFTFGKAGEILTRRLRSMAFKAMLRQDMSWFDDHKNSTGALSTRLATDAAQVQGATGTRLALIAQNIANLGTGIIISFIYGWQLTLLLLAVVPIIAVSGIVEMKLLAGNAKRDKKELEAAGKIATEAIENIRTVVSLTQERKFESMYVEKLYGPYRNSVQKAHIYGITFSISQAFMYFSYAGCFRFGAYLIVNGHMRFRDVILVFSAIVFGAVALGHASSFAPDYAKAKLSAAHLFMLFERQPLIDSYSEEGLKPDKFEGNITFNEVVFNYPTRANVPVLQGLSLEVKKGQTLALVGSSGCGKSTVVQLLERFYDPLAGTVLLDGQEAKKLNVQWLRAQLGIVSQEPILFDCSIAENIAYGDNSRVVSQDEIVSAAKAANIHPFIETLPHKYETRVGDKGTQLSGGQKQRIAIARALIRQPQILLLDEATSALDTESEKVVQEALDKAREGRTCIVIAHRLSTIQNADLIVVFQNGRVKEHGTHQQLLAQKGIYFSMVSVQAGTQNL
T7 sequence (P21439 1-1279 isoform P21439-2 I541F): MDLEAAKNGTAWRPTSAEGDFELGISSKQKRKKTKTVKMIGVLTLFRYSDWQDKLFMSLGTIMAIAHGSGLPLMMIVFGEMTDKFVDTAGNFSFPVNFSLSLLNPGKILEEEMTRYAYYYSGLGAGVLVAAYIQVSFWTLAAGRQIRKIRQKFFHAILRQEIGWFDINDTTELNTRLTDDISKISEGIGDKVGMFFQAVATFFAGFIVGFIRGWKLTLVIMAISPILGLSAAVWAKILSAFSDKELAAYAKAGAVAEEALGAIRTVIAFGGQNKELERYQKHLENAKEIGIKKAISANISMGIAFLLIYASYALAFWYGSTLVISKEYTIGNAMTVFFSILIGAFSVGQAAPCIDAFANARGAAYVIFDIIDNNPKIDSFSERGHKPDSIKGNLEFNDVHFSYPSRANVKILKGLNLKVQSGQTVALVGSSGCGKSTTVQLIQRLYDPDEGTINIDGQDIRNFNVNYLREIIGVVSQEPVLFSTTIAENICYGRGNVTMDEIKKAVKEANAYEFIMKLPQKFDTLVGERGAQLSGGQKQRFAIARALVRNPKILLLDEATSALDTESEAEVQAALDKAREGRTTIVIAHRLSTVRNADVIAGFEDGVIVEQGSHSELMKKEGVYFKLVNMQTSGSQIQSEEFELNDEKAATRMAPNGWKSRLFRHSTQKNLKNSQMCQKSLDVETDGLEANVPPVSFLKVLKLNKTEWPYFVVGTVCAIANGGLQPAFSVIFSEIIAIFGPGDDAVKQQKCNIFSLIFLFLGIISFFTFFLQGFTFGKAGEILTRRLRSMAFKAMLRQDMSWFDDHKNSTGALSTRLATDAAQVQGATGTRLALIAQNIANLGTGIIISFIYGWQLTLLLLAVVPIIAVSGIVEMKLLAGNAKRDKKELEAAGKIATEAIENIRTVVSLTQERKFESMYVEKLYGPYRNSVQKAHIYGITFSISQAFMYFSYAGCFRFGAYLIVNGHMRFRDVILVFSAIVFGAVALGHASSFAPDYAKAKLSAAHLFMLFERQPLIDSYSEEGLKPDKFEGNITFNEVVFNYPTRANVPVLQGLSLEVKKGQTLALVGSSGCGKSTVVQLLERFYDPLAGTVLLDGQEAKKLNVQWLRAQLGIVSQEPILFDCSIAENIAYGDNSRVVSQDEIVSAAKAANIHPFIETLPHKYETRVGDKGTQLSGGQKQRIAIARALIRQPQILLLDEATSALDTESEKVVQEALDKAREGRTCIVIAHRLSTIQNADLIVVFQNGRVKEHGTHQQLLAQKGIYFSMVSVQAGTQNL

| Compound | IC50 (CDK2/A) [µM] | IC50 (CDK5/p25) [µM] | IC50 (CDK9/T) [µM] | IC50 (CK1) [µM] | maturation of ABCB4-I541F (expression of the mature form) (ABCB4-I541F [2]) | also measured |
| --- | --- | --- | --- | --- | --- | --- |
| CC[C@@H](Nc1nc(NCc2cccc(F)c2)c2ncn(C3CCCC3)c2n1)C(=O)O [MRT2-235] | 5.9 | 8.3 | 7 | 7 | significantly increase the expression of a mature form of ABCB4-I541F | IC50 (ABCB4-WT [1]): 21 µM; relocalisation of ABCB4-I490T at bile canaliculi (ABCB4-I490T): partially relocalised at bile canaliculi; relocalisation of ABCB4-L556R at bile canaliculi (ABCB4-L556R): partially relocalised at bile canaliculi; PC secretion activity of ABCB4-I541F (% of ABCB4-WT activity) (ABCB4-I541F [3]): 19.0 ± 3.4% |
| CC[C@@H](Nc1nc(NCc2ccc(F)c(F)c2)c2ncn(C3CCCC3)c2n1)C(=O)O [MRT2-241] | 5.1 | 17 | 8 | 11 | significantly increase the expression of a mature form of ABCB4-I541F |  |
| Cyclosporin A [CsA] |  |  |  |  |  | effect on the PC secretion activity of ABCB4 (ABCB4-WT [4]): inhibits the PC secretion activity of ABCB4; rescue of maturation and canalicular localisation of ABCB4-I541F (ABCB4-I541F [5]): partially rescued |
| CC(Nc1nc(NCc2ccccc2)c2ncn(C(C)C)c2n1)C(=O)O (stereo not drawn) [MRT2-163] |  |  |  | 20 |  |  |
| CC[C@@H](Nc1nc(NCc2ccccc2)c2ncn(C(C)C)c2n1)C(=O)O [M3, reference compound] |  |  | > 33 | > 33 |  |  |
| CC[C@@H](Nc1nc(NCc2ccc(Cl)c(F)c2)c2ncn(C3CCCC3)c2n1)C(=O)O [MRT2-243] | 3 | 6.3 | 5 | 6.1 | significantly increase the expression of a mature form of ABCB4-I541F | IC50 (ABCB4-WT [1]): 17.6 µM; relocalisation of ABCB4-I490T at bile canaliculi (ABCB4-I490T): partially relocalised at bile canaliculi; relocalisation of ABCB4-L556R at bile canaliculi (ABCB4-L556R): partially relocalised at bile canaliculi; PC secretion activity of ABCB4-I541F (% of ABCB4-WT activity) (ABCB4-I541F [3]): 22.5 ± 6.2% |
| CC[C@@H](Nc1nc(NCc2ccccc2)c2ncn(C3CCCC3)c2n1)C(=O)O [MRT2-245] | 6.3 | 15 | 28 | 17 | significantly increase the expression of a mature form of ABCB4-I541F |  |
| CC[C@@H](Nc1nc(NCc2cccc(Cl)c2)c2ncn(C3CCCC3)c2n1)C(=O)O [MRT2-237] | 3.4 | 7.7 | 9 | 3.33 | significantly increase the expression of a mature form of ABCB4-I541F | IC50 (ABCB4-WT [1]): 29.3 µM; relocalisation of ABCB4-I490T at bile canaliculi (ABCB4-I490T): partially relocalised at bile canaliculi; relocalisation of ABCB4-L556R at bile canaliculi (ABCB4-L556R): partially relocalised at bile canaliculi; PC secretion activity of ABCB4-I541F (% of ABCB4-WT activity) (ABCB4-I541F [3]): 13.0 ± 3.5% |
| CC[C@H](CO)Nc1nc(NCc2ccccc2)c2ncn(C(C)C)c2n1 [Roscovitine, (R)-roscovitine] |  |  |  |  |  | viability at 72 h, 25 µM [6]: < 60%; cell viability after treatment at 100 µM (HEK cells; 100 µM, HEK cells expressing ABCB4-WT): massive cell death; cytotoxicity (HEK cells; increasing concentrations, HEK cells): important dose-dependent cytotoxicity |
| CC[C@@H](Nc1nc(NCc2cccc(C(F)(F)F)c2)c2ncn(C(C)C)c2n1)C(=O)O [MRT2-249] | 9 | 27 | > 33 | 5 | significantly increase the expression of a mature form of ABCB4-I541F |  |
| CC[C@@H](Nc1nc(NCc2cccc(C(F)(F)F)c2)c2ncn(C3CCCC3)c2n1)C(=O)O [MRT2-239] | 8 | 11 | 20 | 4 | significantly increase the expression of a mature form of ABCB4-I541F |  |
| CC(C)n1cnc2c(NCc3ccccc3)nc(N[C@@H](CO)C(=O)O)nc21 [MRT2-164] |  |  | 17 | 28 |  |  |
